Experimental data reported in US11660306B2, “Treatment of Rett syndrome” (Cold Spring Harbor Laboratory, priority 2014, dated 2023).

Experiments:
PTP1B [1] = experiment: Reversibility of PTP1B inhibition by triterpenes (Table 2); assay type: biochemical
PTP1B321 = PTP1B321 (Homo sapiens, UniProt P18031); experiment: Triterpene inhibition of PTP1B321 (Table 2); assay type: biochemical
PTP1B405 = PTP1B405 (Homo sapiens, UniProt P18031); experiment: Triterpene inhibition of PTP1B405 (Table 2); assay type: biochemical
Mecp2 mutant mice = experiment: Anti-diabetic small molecules in Mecp2 mutant mice (FIG. 6D)
Mecp2−/y mice [2] = experiment: Survival of Mecp2-null male mice; conditions: for survival (in words): Mecp2-null male mice, 5 mg/kg
[3] = system: panel of six PTPs and two dual-specificity phosphatases; experiment: Specificity against a panel of phosphatases; assay type: biochemical
Protocol: (§1) In this example, in order to determine the significance of the elevated PTP1B levels in animal models of Rett syndrome, the effects of small molecule inhibitors of the phosphatase were tested. Using para-Nitro Phenyl Phosphate (pNPP) as substrate, PTP1B inhibition by CPT157633 was studied (FIG. 13A). […] To obtain structural insights into the PTP1B-CPT157633 interaction, both biomolecular NMR spectroscopy and X-ray crystallography were used. Residues 1-301 from the catalytic domain of PTP1B were expressed in D2O-based medium and 2D [^1H,^15N] TROSY spectra were recorded in the absence and presence of CPT157633. […] This was confirmed by the crystal structure of the PTP1B:CTP157633 complex, which illustrated a non-covalent interaction. Electrostatic interactions made by the compound to critical active site residues are highlighted in FIG. 13G.
(§2) A second inhibitor of PTP1B that exerts its effect on the enzyme by a different mechanism was characterized. […] It inhibited PTP1B with selectivity compared to a panel of eight phosphatases investigated.

Mecp2−/y mice [4] = experiment: Glucose tolerance test in Mecp2−/y male mice; conditions: 5 mg/Kg, two weeks after treatment
PTP1B [5] = target: PTP1B (Homo sapiens (Human), UniProt P18031); experiment: PTP1B phosphatase inhibition; assay type: biochemical
Sequence of PTP1B (Homo sapiens (Human), UniProt P18031) (P18031 whole entry): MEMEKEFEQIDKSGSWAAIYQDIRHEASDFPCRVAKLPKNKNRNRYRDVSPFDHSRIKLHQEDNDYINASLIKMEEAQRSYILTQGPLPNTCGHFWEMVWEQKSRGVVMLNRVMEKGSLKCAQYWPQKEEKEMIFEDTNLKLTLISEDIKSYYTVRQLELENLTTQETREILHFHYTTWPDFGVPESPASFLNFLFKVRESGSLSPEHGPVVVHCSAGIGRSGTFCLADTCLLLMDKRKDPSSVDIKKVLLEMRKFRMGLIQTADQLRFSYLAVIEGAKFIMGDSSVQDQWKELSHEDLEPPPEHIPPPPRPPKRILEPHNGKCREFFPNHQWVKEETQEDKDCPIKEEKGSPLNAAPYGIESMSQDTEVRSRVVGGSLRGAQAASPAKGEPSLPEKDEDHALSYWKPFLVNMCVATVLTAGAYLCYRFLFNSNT
Protocol: as §1, §2

C[C@H]1[C@H](C)CC[C@]2(C(=O)O)CC[C@]3(C)C(=CC[C@@H]4[C@@]5(C)CC[C@H](O)C(C)(C)C5CC[C@]43C)[C@H]12 (stereo partly drawn)
Reversibility (PTP1B [1]): Reversible

C=C(C)[C@@H]1CC[C@]2(C)CC[C@]3(C)[C@H](CC[C@@H]4[C@@]5(C)CC[C@H](O)C(C)(C)[C@@H]5CC[C@]43C)[C@@H]12
Reversibility (PTP1B [1]): Reversible
Ki (PTP1B321): 2.5 µM
Ki (PTP1B405): 1.5 µM

C=C(C)[C@@H]1CC[C@]2(C(=O)O)CC[C@]3(C)[C@H](CC[C@@H]4[C@@]5(C)CC[C@H](OC(=O)CC(C)(C)C(=O)O)C(C)(C)[C@@H]5CC[C@]43C)[C@@H]12
Reversibility (PTP1B [1]): Irreversible
Ki (PTP1B321): 7 µM
Ki (PTP1B405): 4.4 µM

C=C(C)[C@@H]1CC[C@]2(CO)CC[C@]3(C)[C@H](CC[C@@H]4[C@@]5(C)CC[C@H](O)C(C)(C)[C@@H]5CC[C@]43C)[C@@H]12
Reversibility (PTP1B [1]): Reversible
Ki (PTP1B321): 3 µM
Ki (PTP1B405): 2 µM

CN(C)C(=N)N=C(N)N [metformin]
effectiveness compared with PTP1B inhibitors (Mecp2 mutant mice): none of the three inhibitors were as effective as PTP1B inhibitors

CC1CCC23CCC4(C)C5(C)CCC6C(C)(C)C(=O)CCC6(C)C5C=CC4(OC2)C3C1C (stereo not drawn)
Reversibility (PTP1B [1]): Reversible
Ki (PTP1B321): 13 µM
Ki (PTP1B405): 11 µM

CC1(C)CCC[C@](C)([C@H]2CC[C@]3(C)[C@@H]2[C@H](O)C[C@@H]2[C@@]4(C)CC[C@H](O)C(C)(C)[C@@H]4[C@H](O)C[C@]23C)O1
Reversibility (PTP1B [1]): Reversible
Ki (PTP1B321): 14 µM
Ki (PTP1B405): 10 µM

CC1(C)CC[C@]2(C)CC[C@]3(C)[C@H](CC[C@@H]4[C@@]5(C)CCCC(C)(C)[C@@H]5CC[C@]43C)[C@@H]2C1
Reversibility (PTP1B [1]): Reversible
Ki (PTP1B321): 15 µM
Ki (PTP1B405): 9 µM

C[C@H]1[C@H](C)CC[C@]2(C(=O)O)CC[C@]3(C)C(=CC[C@@H]4[C@@]5(C)C[C@@H](O)[C@H](O)C(C)(C)[C@@H]5CC[C@]43C)[C@H]12
Reversibility (PTP1B [1]): Irreversible
Ki (PTP1B321): 3 µM
Ki (PTP1B405): 1.5 µM

CC1(C)[C@@H](OC(=O)CCC(=O)O)CC[C@]2(C)[C@H]3C(=O)C=C4[C@@H]5C[C@@](C)(C(=O)O)CC[C@]5(C)CC[C@@]4(C)[C@]3(C)CC[C@@H]12
Reversibility (PTP1B [1]): Reversible
Ki (PTP1B321): 7 µM
Ki (PTP1B405): 5 µM

C=C(C)C1CC[C@]2(C(=O)O)CC[C@]3(C)[C@H](CC[C@@H]4[C@@]5(C)CC[C@H](O)C(C)(C)[C@@H]5CC[C@]43C)[C@@H]12 (stereo partly drawn)
Reversibility (PTP1B [1]): Irreversible
Ki (PTP1B321): 3 µM
Ki (PTP1B405): 0.7 µM

NC(=O)c1ncn([C@@H]2O[C@H](CO)[C@@H](O)[C@H]2O)c1N [AICAR]
effectiveness compared with PTP1B inhibitors (Mecp2 mutant mice): none of the three inhibitors were as effective as PTP1B inhibitors

CC(C)[C@H]1CC[C@]2(C)[C@H]3CC[C@@H]4[C@@]5(C)CCCC(C)(C)[C@@H]5CC[C@@]4(C)[C@]3(C)CC[C@@H]12
Reversibility (PTP1B [1]): Reversible
Ki (PTP1B321): 9 µM
Ki (PTP1B405): 5.7 µM

CC1(C)CC[C@]2(C(=O)O)CC[C@]3(C)C(=CCC4[C@@]5(C)C[C@@H](O)[C@H](O)C(C)(C)[C@@H]5CC[C@]43C)[C@@H]2C1 (stereo partly drawn)
Reversibility (PTP1B [1]): Reversible
Ki (PTP1B321): 10 µM
Ki (PTP1B405): 5.7 µM

COC(=O)[C@]1(C)CC[C@]2(C)CC[C@]3(C)C4=CC=C5C(=CC(=O)C(O)=C5C)[C@]4(C)CC[C@@]3(C)[C@@H]2C1
Reversibility (PTP1B [1]): Irreversible
Ki (PTP1B321): 10 µM
Ki (PTP1B405): 8 µM

C[C@H]1[C@H](C)CC[C@]2(C)CC[C@]3(C)C(=CC[C@@H]4[C@@]5(C)CC[C@H](O)C(C)(C)[C@@H]5CC[C@]43C)[C@H]12
Reversibility (PTP1B [1]): Irreversible
Ki (PTP1B321): 6 µM
Ki (PTP1B405): 4 µM

CC1(C)CC[C@]2(C(=O)O)CC[C@]3(C)C(=CC[C@@H]4[C@@]5(C)CC[C@H](O)C(C)(C)[C@@H]5CC[C@]43C)[C@@H]2C1
Reversibility (PTP1B [1]): Reversible

C[C@@H]1CC[C@]2(C(=O)O)CC[C@]3(C)C(=CCC4[C@@]5(C)CC[C@H](O)C(C)(C)C5CC[C@]43C)C2[C@H]1C (stereo partly drawn) [UA001, ursolic acid, reference compound]
survival (in words) (Mecp2−/y mice [2]): improved the survival

CC1(C)CC[C@]2(C)CC=C3C(C)(CC[C@@H]4[C@@]5(C)CC[C@H](O)C(C)(C)[C@@H]5CC[C@@]34C)[C@@H]2C1 (stereo partly drawn)
Reversibility (PTP1B [1]): Reversible
Ki (PTP1B321): 8 µM
Ki (PTP1B405): 5 µM

CN(CCOc1ccc(CC2SC(=O)NC2=O)cc1)c1ccccn1 (stereo not drawn) [rosiglitazone]
effectiveness compared with PTP1B inhibitors (Mecp2 mutant mice): none of the three inhibitors were as effective as PTP1B inhibitors

C[C@H]1C(=O)CC[C@H]2[C@]1(C)CC[C@]13C[C@@]14CC[C@@]1(C)CCC(C)(C)C[C@]15C[C@]54CC[C@@]23C
Reversibility (PTP1B [1]): Reversible
Ki (PTP1B321): 4 µM
Ki (PTP1B405): 2 µM

C[C@H]1[C@H](C)CC[C@]2(CO)CC[C@]3(C)C(=CC[C@@H]4[C@@]5(C)CC[C@H](O)C(C)(C)[C@@H]5CC[C@]43C)[C@H]12
Reversibility (PTP1B [1]): Reversible

COC[C@]12CC[C@@H](C)[C@H](C)[C@H]1[C@@]1(O)C=C[C@@H]3[C@@]4(C)CCC(=O)C(C)(C)[C@@H]4CC[C@@]3(C)[C@]1(C)CC2
Reversibility (PTP1B [1]): Reversible
Ki (PTP1B321): 15 µM
Ki (PTP1B405): 15 µM

CC1=C(O)C(=O)C=C2C1=CC=C1[C@@]2(C)CC[C@@]2(C)[C@@H]3C[C@](C)(C(=O)O)CC[C@]3(C)CC[C@]12C
Reversibility (PTP1B [1]): Irreversible
Ki (PTP1B321): 10 µM
Ki (PTP1B405): 10 µM

CC1(C)CC[C@]2(C(=O)O)CC[C@]3(C)C(=CC[C@@H]4[C@@]5(C)C[C@@H](O)[C@H](O)[C@@](C)(CO)[C@@H]5CC[C@]43C)[C@@H]2C1
Reversibility (PTP1B [1]): Reversible
Ki (PTP1B321): 8.3 µM
Ki (PTP1B405): 7 µM

CC1(C)C=C2[C@H]3CC[C@@H]4[C@@]5(C)CCC(=O)C(C)(C)[C@@H]5CC[C@@]4(C)[C@]3(C)CC[C@@]2(C(=O)O)CC1
Reversibility (PTP1B [1]): Reversible
Ki (PTP1B321): 7 µM
Ki (PTP1B405): 5 µM

C[C@@H]1CC[C@]2(C(=O)NCCCCCCCCCCC(=O)N[C@@H](Cc3ccccc3)C(=O)O)CC[C@]3(C)C(=CCC4[C@@]5(C)CC[C@H](O)C(C)(C)C5CC[C@]43C)C2[C@H]1C (stereo partly drawn) [UA0713]
effect against phosphatase panel compared to PTP1B [3]: selectivity
glucose intolerance (Mecp2−/y mice [4]): markedly reduced
mode of inhibition of PTP1B (PTP1B [5]): non-competitive
Ki (PTP1B [5]; substrate not stated): 0.15 µM
survival (in words) (Mecp2−/y mice [2]): improved the survival
increase in survival (Mecp2−/y mice [2]; Mecp2−/y male mice, 5 mg/Kg, versus saline): 2 fold
median life-span (Mecp2−/y mice [2]; Mecp2−/y male mice, 5 mg/Kg, saline 40 days): 95 days

CC1(C)CC[C@]2(C)CC[C@]3(C)C(=CC[C@@H]4[C@@]5(C)CC[C@@H](O)[C@](C)(C(=O)O)[C@@H]5CC[C@]43C)[C@@H]2C1
Reversibility (PTP1B [1]): Reversible
Ki (PTP1B321): 6 µM
Ki (PTP1B405): 4 µM

CC1(C)[C@@H](O)CC[C@]2(C)[C@H]3C(=O)C=C4[C@@H]5C[C@@](C)(C(=O)O)CC[C@]5(C)CC[C@@]4(C)[C@]3(C)CC[C@@H]12
Reversibility (PTP1B [1]): Reversible

C[C@H]1CC[C@@]2(OC1)O[C@H]1C[C@H]3[C@@H]4CC=C5C[C@@H](O)CC[C@]5(C)[C@H]4CC[C@]3(C)[C@H]1[C@@H]2C
Reversibility (PTP1B [1]): Reversible
Ki (PTP1B321): 36 µM
Ki (PTP1B405): 25 µM

CC/C=C/C(C)(O)OCC1(C)C(=O)CCC2(C)C1CCC1(C)C2CCC2C3C(C)C(C)CCC3(C)CCC21C (stereo not drawn)
Reversibility (PTP1B [1]): Reversible
Ki (PTP1B321): 18 µM
Ki (PTP1B405): 22 µM

CC1(C)CC[C@]2(C(=O)O)CC[C@]3(C)C(=CC[C@@H]4[C@@]5(C)CC[C@H](O)[C@@](C)(CO)[C@@H]5CC[C@]43C)[C@@H]2C1
Reversibility (PTP1B [1]): Reversible
Ki (PTP1B321): 3.6 µM
Ki (PTP1B405): 2 µM
